Measurements: ChEMBL document CHEMBL1759870, “Identification, structural properties and chelating capacity of miltipolone as a broad-spectrum inhibitor to cancer cells” (Eur J Med Chem, 2011)
Activity calls are given as the source filed them.

Legend:
Assay type in all cases: functional, cell-based
HeLa [1] = assay: Antiproliferative activity against human HeLa cells at 2 uM after 96 hrs by MTT assay in presence of ferric ion
MCF7 [2] = assay: Antiproliferative activity against human MCF7 cells at 2 uM after 96 hrs by MTT assay in presence of ferric ion
Jurkat [3] = assay: Antiproliferative activity against human Jurkat cells at 2 uM after 96 hrs by MTT assay in presence of ferric ion
HT-1080 [4] = assay: Antiproliferative activity against human HT1080 cells at 2 uM after 96 hrs by MTT assay in presence of ferric ion
A-375 [5] = assay: Antiproliferative activity against human A375 cells at 2 uM after 96 hrs by MTT assay in presence of ferric ion
NCI-N87 [6] = assay: Antiproliferative activity against human NCI-N87 cells at 2 uM after 96 hrs by MTT assay in presence of ferric ion
PANC-1 [7] = assay: Antiproliferative activity against human PANC1 cells at 2 uM after 96 hrs by MTT assay in presence of ferric ion
A549 [8] = assay: Antiproliferative activity against human A549 cells at 2 uM after 96 hrs by MTT assay in presence of cobalt ion
Bel-7402 [9] = assay: Antiproliferative activity against human Bel7402 cells at 2 uM after 96 hrs by MTT assay in presence of cobalt ion
HepG2 [10] = assay: Antiproliferative activity against human HepG2 cells at 2 uM after 96 hrs by MTT assay in presence of cobalt ion
HeLa [11] = assay: Antiproliferative activity against human HeLa cells at 2 uM after 96 hrs by MTT assay in presence of cobalt ion
MCF7 [12] = assay: Antiproliferative activity against human MCF7 cells at 2 uM after 96 hrs by MTT assay in presence of cobalt ion
Jurkat [13] = assay: Antiproliferative activity against human Jurkat cells at 2 uM after 96 hrs by MTT assay in presence of cobalt ion
HT-1080 [14] = assay: Antiproliferative activity against human HT1080 cells at 2 uM after 96 hrs by MTT assay in presence of cobalt ion
A-375 [15] = assay: Antiproliferative activity against human A375 cells at 2 uM after 96 hrs by MTT assay in presence of cobalt ion
NCI-N87 [16] = assay: Antiproliferative activity against human NCI-N87 cells at 2 uM after 96 hrs by MTT assay in presence of cobalt ion
PANC-1 [17] = assay: Antiproliferative activity against human PANC1 cells at 2 uM after 96 hrs by MTT assay in presence of cobalt ion
A549 [18] = assay: Antiproliferative activity against human A549 cells at 2 uM after 96 hrs by MTT assay in presence of zinc ion
Bel-7402 [19] = assay: Antiproliferative activity against human Bel7402 cells at 2 uM after 96 hrs by MTT assay in presence of zinc ion
HepG2 [20] = assay: Antiproliferative activity against human HepG2 cells at 2 uM after 96 hrs by MTT assay in presence of zinc ion
HeLa [21] = assay: Antiproliferative activity against human HeLa cells at 2 uM after 96 hrs by MTT assay in presence of zinc ion
MCF7 [22] = assay: Antiproliferative activity against human MCF7 cells at 2 uM after 96 hrs by MTT assay in presence of zinc ion
Jurkat [23] = assay: Antiproliferative activity against human Jurkat cells at 2 uM after 96 hrs by MTT assay in presence of zinc ion
HT-1080 [24] = assay: Antiproliferative activity against human HT1080 cells at 2 uM after 96 hrs by MTT assay in presence of zinc ion
A-375 [25] = assay: Antiproliferative activity against human A375 cells at 2 uM after 96 hrs by MTT assay in presence of zinc ion
NCI-N87 [26] = assay: Antiproliferative activity against human NCI-N87 cells at 2 uM after 96 hrs by MTT assay in presence of zinc ion
PANC-1 [27] = assay: Antiproliferative activity against human PANC1 cells at 2 uM after 96 hrs by MTT assay in presence of zinc ion
A549 [28] = assay: Antiproliferative activity against human A549 cells at 2 uM after 96 hrs by MTT assay in presence of manganese ion
Bel-7402 [29] = assay: Antiproliferative activity against human Bel7402 cells at 2 uM after 96 hrs by MTT assay in presence of manganese ion
HepG2 [30] = assay: Antiproliferative activity against human HepG2 cells at 2 uM after 96 hrs by MTT assay in presence of manganese ion
HeLa [31] = assay: Antiproliferative activity against human HeLa cells at 2 uM after 96 hrs by MTT assay in presence of manganese ion
MCF7 [32] = assay: Antiproliferative activity against human MCF7 cells at 2 uM after 96 hrs by MTT assay in presence of manganese ion
Jurkat [33] = assay: Antiproliferative activity against human Jurkat cells at 2 uM after 96 hrs by MTT assay in presence of manganese ion
HT-1080 [34] = assay: Antiproliferative activity against human HT1080 cells at 2 uM after 96 hrs by MTT assay in presence of manganese ion
A-375 [35] = assay: Antiproliferative activity against human A375 cells at 2 uM after 96 hrs by MTT assay in presence of manganese ion
NCI-N87 [36] = assay: Antiproliferative activity against human NCI-N87 cells at 2 uM after 96 hrs by MTT assay in presence of manganese ion
PANC-1 [37] = assay: Antiproliferative activity against human PANC1 cells at 2 uM after 96 hrs by MTT assay in presence of manganese ion
Bel-7402 [38] = assay: Antiproliferative activity against human Bel7402 cells at 2 uM after 96 hrs by MTT assay in presence of 1 uM of ferrous ion

Measured: Activity

Cc1cc2c(cc(O)c1=O)[C@@]13CCCC(C)(C)[C@@H]1C[C@@H]2OC3 [MILTIPOLONE]
active: all assays above
